What was measured:
SARS-CoV-2 [1] = assay: Syrian hamster SARS-CoV-2 infection model; assay type: in vivo; conditions: 60, 90 or 120 mg/kg per os once a day for 7 days
Method: The efficacy of cysteamine-pantetheine disulfide (compound 1) is assessed in the Syrian hamster model. Maximal clinical signs of rapid breathing, weight loss, histopathological changes from the initial exudative phase of diffuse alveolar damage with extensive apoptosis to the later proliferative phase of tissue repair, airway and intestinal involvement with virus nucleocapsid protein expression, high lung viral load, and spleen and lymphoid atrophy associated with marked cytokine activation are observed within the first week of virus challenge. The lung virus titer is between 10^5-10^7 TCID50/g. Challenged index hamsters can consistently infected naïve contact hamsters housed within the same cage, resulting in similar pathology but not weight loss. All infected hamsters can recover and develop mean serum neutralizing antibody titer ≥1:427 fourteen days post-challenge. Immunoprophylaxis with early convalescent serum can achieve significant decrease in lung viral load but not in lung pathology.
Three groups of 3 Syrian hamsters infected by SARS-CoV-2 per group receive cysteamine-pantetheine disulfide (compound 1) per os once a day for 7 days. The first group receives 60 mg/kg, second group 90 mg/kg and third group 120 mg/kg. Clinical status, biological parameters and viral load are characterized every day.

SARS-CoV-2 [2] = assay: Single-dose/multiple dose open-label study in patients with COVID-19; assay type: in vivo, human; conditions: patients infected with SARS-CoV-2, end of study
Method: A single-dose/multiple dose, open-labeled, non-randomized, two-period study of Cysteamine-Pantetheine Disulfide (compound 1) in […] (male and female) with COVID-19 under fasting or fed conditions is performed. Prior to treatment, patients undergo screening to determine study eligibility (Day-1).
Pharmacodynamic Evaluations: SARS-CoV-2 viral load will be obtained from samples collected from Day 0 to Day 15 according to the Schedule of Events.

[3] = administered to fasting patients; cited from earlier work

CC(C)(CO)[C@@H](O)C(=O)NCCC(=O)NCCSSCCN [compound 1, cysteamine-(R)-pantetheine disulfide]
recovery (SARS-CoV-2 [1]): more rapid recovery
symptoms of infection (SARS-CoV-2 [1]): less severe symptoms of infection
viral load (SARS-CoV-2 [1]): lower viral load
risk of severe COVID-19 outcomes (pneumonitis, ARDS, respiratory failure, septic shock, organ failure, cytokine storm, death) (SARS-CoV-2 [2]): lower risk

NCCS [cysteamine, 2-aminoethanethiol]
inter-patient variation in cysteamine plasma levels [3]: up to four fold
